# Patent US20130324606A1, “Ester Derivatives of Bimatoprost Compositions and Methods” (ALLERGAN, INC., priority 2011, published 2013)
# Assays:
# mouse skin = assay: Pathology assessment of mouse hair regrowth model; assay type: in vivo, mice; details: histology, 0.03% active, vehicle control still in growth phase
# Description: Histological samples from test subjects employed in the studies described in Example 12 were obtained for pathology assessment.
# [1] = microAmes mutagenesis screen; assay type: cell-based; details: with or without metabolic activation
# Description: Cmpds IVa, IIIb, and IVb were subjected to the microAmes screen, as known in the art.
# [2] = In vitro human skin penetration (Franz diffusion chamber); assay type: in vitro ADME; details: FIGS. 14A-14C, 6, 24, 48 hr
# [3] = Formulation and stability studies; assay type: physicochemical; details: variations of Formulation A, 0.03% active, pH 4, 5, 6 and 7; 25, 40 and 60° C.; zero time and 80-days
# Protocol: Stability over time of compounds disclosed herein was determined in formulation as a function of temperature and pH. Variations of Formulation A described herein were employed wherein the target concentration of active agent was 0.03%, and the pH was varied at pH 4, 5, 6 and 7. Temperatures of 25° C., 40° C. and 60° C. were maintained during the experiment. Samples were evaluated at zero time and 80-days.
# Cmpds IVa, IIIb, and IVb for evaluated for stability.
# FIGS. 1A-1B, 2A-2B, and 3A-3B depict histograms of relative concentrations of test compounds (arbitrary scale) at zero time or 80-days. FIG. 1A depicts a histogram of the stability profile of Cmpd IVa as a function of pH and temperature. FIG. 1B depicts a histogram of the formation of bimatoprost as a function of pH and temperature after 80-days for Cmpd IVa. FIG. 2A depicts a histogram of the stability profile of Cmpd IVb as a function of pH and temperature. FIG. 2B depicts a histogram of the formation of bimatoprost as a function of pH and temperature after 80-days for Cmpd IVb. FIG. 3A depicts a histogram of the stability profile of Cmpd IIIb as a function of pH and temperature. FIG. 3B depicts a histogram of the formation of bimatoprost as a function of pH and temperature after 80-days for Cmpd IIIb.
# [4] = In vitro human skin penetration (Franz diffusion chamber); assay type: in vitro ADME
# Description: Test material: Dermatomed ex vivo human cadaver posterior trunk skin on 1.0 cm^2 Franz diffusion chamber as known in the art. Test size: 3 skin donors (obtained from New York Firefighters Skin Bank), 3 replicates per donor per formulation. Test formulations: 0.03% active agent (Cmpd IVa, Cmpd IIIb, Cmpd IVb) in Formulation A; control formulation: bimatoprost at 0.03% in Formulation A. Dosing regimen: receptor fluid at 2, 4, 24, and 48 hrs; SC/epidermis and dermis at 48 hrs. Sample analysis: LC/MS-MS to detect bimatoprost and Cmpds IVa, IIIb and IVb.
structure (smiles),measurement,setting,value
"CCNC(=O)CCC/C=C\C[C@@H]1[C@@H](/C=C/[C@H](CCc2ccccc2)OC(C)=O)[C@H](O)C[C@@H]1O [Cmpd IVa, 15-acetyl-bimatoprost]",hair cycle phase at day-42,mouse skin,returned to the resting phase
same,mutagenicity in microAmes screen,[1],not mutagenic
same,conversion to bimatoprost in the receptor chamber solution,[2],observed to convert to bimatoprost
same,stability in formulation,[3],stable in formulation
same,skin penetration (cumulative amount in receptor solution) relative to bimatoprost,"[4]; 0.03% in Formulation A, FIG. 13A",significantly greater than for bimatoprost
same,penetration flux relative to bimatoprost,"[4]; 0.03% in Formulation A, FIG. 13B",greater than that for bimatoprost
same,"Percentage Dose Applied, Receptor Chamber Solution, Prodrug","[4]; 0.03% in Formulation A, Franz chamber, dosed compound",4.3 Percentage Dose Applied
same,"Percentage Dose Applied, Upper ⅓ Dermis, Prodrug","[4]; 0.03% in Formulation A, dermis at 48 hrs, dosed compound",3.8 Percentage Dose Applied
same,conversion to bimatoprost in the SC/Epi/Dermis layers,[4]; FIG. 15A,converted to bimatoprost
same,amount of active agent in the upper third of the dermis relative to bimatoprost,[4]; FIG. 15B,less than observed for bimatoprost
